# Tests used:
# [1] = tested on: peripheral blood mononuclear cells; test: Phagocytosis with fluorescent beads; format: cell-based; settings: 30 min, whole heparinized blood
# Experimental: Phagocytosis by peripheral blood mononuclear cells (PBMCs) was assayed (Steinkamp et al., 1982) using 1 μm Fluoresbrite™ yellow-green fluorescent latex spheres (Polysciences, Inc., Warrington, Pa.). A sample of whole, heparinized blood was treated with drug and 5×10E7 fluorescent latex beads in 10 μL of PBS added per mL of suspension. Cells were incubated and maintained in suspension for 30 min by means of a shaker platform at 37° C. The stimulated and non-stimulated samples were then lysed to isolate PBMCs. The PBMCs were run on the flow cytometer measuring FITC (excitation at 488 nm, emission at 525±20 nm), gated for fluorescence (phagocytosed spheres) and light scatter (cell size).
# PKCγ = molecular target: T1, PKCγ (Homo sapiens, UniProt P05129); test: EGFP-PKC translocation in HeLa cells (PKCγ); format: cell-based; settings: one hour
# T1 construct: host or cells: HeLa cells
# Experimental: (§1) Five EGFP-PKC isoforms (Clontech) were available for this experiment, enabling the screening of the three predominant PKC families (i.e. classical, novel and atypical PKCs). The members of the various PKC families are α, β, and γ (classical), θ (novel) and ζ (atypical).
# (§2) HeLa cells were plated out in a 24-well plate containing coverslips and transfected with PKC isoforms fused to EGFP, using a commercially available effectine-transfection kit (QIAGEN, Pty. Ltd.). Cells were exposed to the transfection reagents for 16-24 hr. Subsequently, transfected cells were treated for one hour with TPA (100 ng/mL), bryostatin-1 (5 pg/mL), PEP003 (2.25 μg/mL; 5 μM) or PEP005 ([…]) 1.5 μM). Following treatment, cells were fixed on coverslips and mounted on glass slides. The slides were subsequently examined visually by fluorescence microscopy, photographed, and over 150 cells were counted/treatment/PKC isoform. Counted cells were classified according to the localisation of the PKC-EGFP fluorescence as either cytoplasmic or plasma membrane using ImagePro™ 4.1 (FIG. 5). […] The number of these cells was also counted. Results are presented as an average and standard deviation of percentages of cells (Table 1).
# [2] = tested on: Peripheral blood mononuclear cells (granulocytes, monocytes, lymphocytes); test: Respiratory burst, DCFH-DA H2O2 flow cytometry; format: cell-based; settings: bisindolylmaleimide 10 ng/mL or 1 ng/mL
# Experimental: Experiments were also carried out using 2′,7′-dichlorofluorescein diacetate (DCFH-DA) to measure the production of H2O2. (J P Robinson, Oxidative burst methods, in Handbook of Flow Cytometry Methods, Wiley-Liss Inc, pp 147-149, 1993). H2O2 oxidizes the non-fluorescent probe (DCFH-DA) to a fluorescent probe that can then be detected by a flow cytometer. Peripheral blood mononuclear cells (PBMC) were extracted from a donor blood sample by lysis of heparinized blood and used in a suspension of 1×10^6/mL of phosphate buffer, pH 7.3. The cells were then incubated with DCFH-DA (1 μL/mL of 20 mM stock) for 15 minutes to allow it to be taken up and trapped by hydrolysis with cellular esterases. The cells were then stimulated by test compounds for 15 min at 37° C. Controls included in the experiment were unloaded control (cells with no DCFH-DA) and loaded control (cells with DCFH-DA, but no stimulation). These were used to monitor the non-specific oxidation of unstimulated cells. The cells were then analyzed on the flow cytometer (excitation at 488 nm, emission at 525±20 nm), gating each sample for individual cell populations—granulocytes, monocytes and lymphocytes (Table 3).
# [3] = tested on: EBV in Burkitt's lymphoma cell lines (Mutul, BL74) and an LCL; test: EBV activation (VCA western blot) in Burkitt's lymphoma cell lines and LCL; format: cell-based
# Experimental: To ensure that equal amounts of each sample were analyzed, the gels were stained with Coomassie blue and the loadings were adjusted to make them equal. […] Next the PEP003 and PEP004 were assayed on two Burkitt's lymphoma cell lines and an LCL. This time only concentrations of 10^−5 and 10^−7 were used.
# rat brain PKC = test: PKC kinase activity, PepTag non-radioactive protein kinase assay; format: biochemical; settings: PepTag gel; various dilutions of TPA; ether extract final dilution 1 in 5; crude sap and aqueous layer diluted 1/25
# Experimental: The kinase activity of rat brain PKC (Promega) was determined using the Peptag™ Non-Radioactive Protein Kinase Kit (Promega). Using agarose gel electrophoresis the technique visualises the opposing electrostatic charge of a fluorescently labeled peptide ([sequence]) compared to the phosphorylated version of the same peptide.
# The reaction mixture was separated by gel electrophoresis, showing migration of the unreacted substrate (a) to the anode (top), and the product (b), which is more negatively charged because of phosphorylation by PKC, moving towards the cathode (bottom).
# PKCβ = molecular target: T2, PKCβ (Homo sapiens, UniProt P05771); test: EGFP-PKC translocation in HeLa cells (PKCβ); format: cell-based; settings: one hour
# T2 construct: host or cells: HeLa cells
# Experimental: as §1, §2
# [4] = tested on: Human peripheral blood mononuclear cells; test: Phagocytic activity, nitroblue tetrazolium uptake; format: cell-based; settings: 100 ng/mL, 20 min; controls <2%
# Experimental: Human peripheral blood mononuclear cells (PBMC) prepared by standard Ficoll separation comprise approximately 5% monocytes. PBMC were incubated with dihydroethidium, a reduced form of the dye which becomes fluorescent when oxidized by a respiratory burst, then treated in 10% FCS-RPMI 1640 at 37° C. for 15 min with crude E. peplus extract diluted 1/1000 or 100 ng/mL TPA and analyzed by flow cytometry using conventional methods (Handbook of Flow Cytometry Methods, p. 151). The mean channel numbers for fluorescence were 618 (controls) and 818 (E. peplus extract diluted 1/1000). […] Phagocytic activity was determined by a conventional method (Hudson and Hay, Practical Immunology, 3rd edition, p. 74). […] The average of three fields gave figures of <2% (controls), 10% (TPA) and 8.7% (E. peplus sap) cells stained blue.
# PKCζ = molecular target: T3, PKCζ (Homo sapiens, UniProt Q05513); test: EGFP-PKC translocation in HeLa cells (PKCζ); format: cell-based; settings: one hour, same concentrations
# T3 construct: host or cells: HeLa cells
# T3 sequence (Q05513 1-592): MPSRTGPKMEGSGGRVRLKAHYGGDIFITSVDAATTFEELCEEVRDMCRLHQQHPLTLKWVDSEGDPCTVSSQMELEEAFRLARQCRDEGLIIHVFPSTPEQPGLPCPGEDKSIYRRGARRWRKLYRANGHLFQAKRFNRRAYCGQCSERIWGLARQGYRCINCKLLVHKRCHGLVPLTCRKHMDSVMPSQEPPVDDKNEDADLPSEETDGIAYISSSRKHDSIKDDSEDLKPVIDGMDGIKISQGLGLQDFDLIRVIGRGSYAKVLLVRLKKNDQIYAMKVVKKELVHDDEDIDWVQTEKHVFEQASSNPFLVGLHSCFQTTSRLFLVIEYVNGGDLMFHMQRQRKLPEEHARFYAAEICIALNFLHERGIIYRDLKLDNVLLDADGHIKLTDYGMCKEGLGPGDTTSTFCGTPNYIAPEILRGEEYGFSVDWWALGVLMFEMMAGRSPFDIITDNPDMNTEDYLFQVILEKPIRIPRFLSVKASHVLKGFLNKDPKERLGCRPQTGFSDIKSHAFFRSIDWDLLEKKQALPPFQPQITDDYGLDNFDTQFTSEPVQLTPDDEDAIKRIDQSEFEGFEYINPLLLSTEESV
# Experimental: as §1, §2
# [5] = TPA 100 ng/mL, bryostatin-1 5 pg/mL, PEP003 2.25 μg/mL (5 μM), PEP005 670 μg/mL (1.5 μM)
# T2 sequence (P05771 whole entry, species assumed): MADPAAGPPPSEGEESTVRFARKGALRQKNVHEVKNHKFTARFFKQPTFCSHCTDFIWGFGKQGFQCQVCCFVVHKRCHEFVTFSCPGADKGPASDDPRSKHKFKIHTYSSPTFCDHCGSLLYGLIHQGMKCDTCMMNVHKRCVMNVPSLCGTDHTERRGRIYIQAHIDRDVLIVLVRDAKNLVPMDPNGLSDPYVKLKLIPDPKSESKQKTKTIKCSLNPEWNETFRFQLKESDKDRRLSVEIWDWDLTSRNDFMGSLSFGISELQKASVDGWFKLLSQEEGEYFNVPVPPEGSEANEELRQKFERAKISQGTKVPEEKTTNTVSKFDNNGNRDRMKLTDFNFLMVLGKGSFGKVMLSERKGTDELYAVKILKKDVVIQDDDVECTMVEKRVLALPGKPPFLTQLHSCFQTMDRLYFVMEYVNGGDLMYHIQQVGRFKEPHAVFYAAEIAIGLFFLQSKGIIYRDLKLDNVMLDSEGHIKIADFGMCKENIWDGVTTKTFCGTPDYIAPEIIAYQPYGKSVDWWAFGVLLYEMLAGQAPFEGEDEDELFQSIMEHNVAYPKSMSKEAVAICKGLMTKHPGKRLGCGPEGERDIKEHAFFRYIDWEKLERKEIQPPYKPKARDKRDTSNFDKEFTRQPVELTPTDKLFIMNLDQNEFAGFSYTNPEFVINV
compound,measurement,setting,value
"CCCCCCCCCCCCCC(=O)O[C@@H]1[C@@H](C)[C@@]2(O)[C@@H](C=C(CO)C[C@]3(O)C(=O)C(C)=C[C@@H]23)C2C(C)(C)[C@@]21OC(C)=O (single isomer, unassigned) [TPA]",phagocytosis of fluorescent latex spheres in PBMCs,[1],stimulate phagocytosis
same,number of PKCγ transfected cells displaying Golgi-like fluorescence,PKCγ,increase in the number of cells displaying Golgi-like fluorescence
same,translocation of PKCγ from cytoplasm to plasma membrane,PKCγ; [5],translocated from the cytoplasm to the plasma membrane
same,respiratory burst with bisindolylmaleimide added,[2],blocked
same,induction of VCA in Mutul cells,[3],did not
same,activation of PKC (FIG. 1),rat brain PKC,showed activation of PKC
same,number of PKCβ transfected cells with Golgi-like fluorescence,PKCβ,increase in Golgi-like fluorescence
same,translocation of PKCβ from cytoplasm to plasma membrane,PKCβ; [5],translocated from the cytoplasm to the plasma membrane
same,cells stained blue (NBT),[4],10%
same,translocation of PKCζ,PKCζ,fail to induce translocation

# Reference: patent US9314458B2, “Topical use of ingenol-3-angelate or a salt thereof to treat skin cancer” (LEO Laboratories Limited, priority 2000, dated 2016)
